Laboratory results as given in paper PMC11073699, “Odorant receptors for floral- and plant-derived volatiles in the yellow fever mosquito, Aedes aegypti (Diptera: Culicidae)” (PLOS ONE, 2024).
“And” between values parts separate entries of the source, which are not always exact repeats. Identical values can stand only once.

Columns and labels:
Format in all cases: cell-based
[1] = molecular target: T1, AaegOR15 (Aedes aegypti, UniProt A0A6B9QIR2); experiment: Two-electrode voltage clamp of Xenopus laevis oocytes expressing AaegOR15/Orco (blends, unitary compounds, concentration-response); settings: for Raw data (Responses in nA), compounds of blend Alcohols 2: individual oocytes 1-10 (replicates); for Raw Data, concentration-response: no unit printed in this section (nA in the sections above); for Raw data (Responses in nA), phenethyl propionate versus 1-hexanol: separate set of 7 oocytes (replicates)
T1 sequence (A0A6B9QIR2 1-390): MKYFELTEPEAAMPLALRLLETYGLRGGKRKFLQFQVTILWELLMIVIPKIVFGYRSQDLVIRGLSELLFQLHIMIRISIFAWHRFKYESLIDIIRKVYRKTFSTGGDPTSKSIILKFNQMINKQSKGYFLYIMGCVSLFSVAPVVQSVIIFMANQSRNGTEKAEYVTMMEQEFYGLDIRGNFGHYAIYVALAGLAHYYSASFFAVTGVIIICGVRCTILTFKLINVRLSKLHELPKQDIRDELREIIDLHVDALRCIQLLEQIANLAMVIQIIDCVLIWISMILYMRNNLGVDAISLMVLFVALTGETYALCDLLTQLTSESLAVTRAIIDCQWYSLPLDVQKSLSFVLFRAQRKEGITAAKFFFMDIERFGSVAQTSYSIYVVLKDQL
T1 sequence (Q178U6 1-478 partner): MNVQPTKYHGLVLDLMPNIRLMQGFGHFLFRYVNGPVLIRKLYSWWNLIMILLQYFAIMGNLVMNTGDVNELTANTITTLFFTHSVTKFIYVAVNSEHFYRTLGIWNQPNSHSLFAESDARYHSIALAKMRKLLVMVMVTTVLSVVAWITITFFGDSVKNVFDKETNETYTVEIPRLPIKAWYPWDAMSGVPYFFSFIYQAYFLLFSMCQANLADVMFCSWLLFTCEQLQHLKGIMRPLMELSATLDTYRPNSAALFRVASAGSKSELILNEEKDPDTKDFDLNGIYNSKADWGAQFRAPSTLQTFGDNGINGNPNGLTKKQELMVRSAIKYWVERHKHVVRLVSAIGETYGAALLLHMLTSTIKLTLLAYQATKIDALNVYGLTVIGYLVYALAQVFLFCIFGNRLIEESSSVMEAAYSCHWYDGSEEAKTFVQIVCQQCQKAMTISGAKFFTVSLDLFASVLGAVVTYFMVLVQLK
Excerpt: (§1) The coding regions of ten AaegOR genes of interest (S3 File) and AaegOrco were synthesized by Twist Bioscience (San Francisco, CA, USA) and cloned into the pENTR plasmid. The Gateway LR directional cloning system (Invitrogen Corp., Carlsbad, CA, USA) was utilized to subclone AaegOR coding regions into the pSP64t-RFA oocyte expression plasmid. Plasmids were purified using the GeneJet Plasmid Miniprep Kit (ThermoFisher Scientific, Waltham, MA, USA). Purified plasmids were sequenced in both directions to confirm coding regions.
(§2) Chemical compounds (S6 File) used in the deorphanization of AaegORs were purchased from Acros Organics (Morris, NJ, USA), Alfa Aesar (Ward Hill, MA, USA), and ThermoFisher Scientific (Waltham, MA, USA) at the highest purity available. Compounds were stored as 1M stocks in 100% DMSO. Serial dilutions of each compound were prepared in 10% DMSO and blended by chemical class.
(§3) pSP64t-RFA: AaegOR clones were linearized using Xbal, and cRNAs were synthesized using the mMESSAGE mMACHINE ® SP6 kit (Life Technologies, Carlsbad, CA, USA). Xenopus laevis stage V-VII oocytes purchased from Xenopus1 (Dexter, MI, USA) were stored at 18°C in Incubation medium (ND96 96 with 5% dialyzed horse serum, 50μg/mL gentamycin, 100μg/mL streptomycin, 100μg/mL penicillin, and 550μg/mL sodium pyruvate). 30nL of cRNA was injected into multiple oocytes using a microinjection syringe pump (World Precision Instruments, Sarasota, FL, USA) maintained at 18°C for 48–72 hrs. Odorant blends were perfused across individual oocytes for 10–15 seconds, held at a resting membrane potential of -80 mV using an OC-725C oocyte clamp (Warner Instruments, LLC, Hamden, CT, USA). Induced currents were measured indirectly using the two-electrode voltage clamp technique (TEVC). Following each stimulus, currents were allowed to return to baseline before further stimulation. Data was captured using the Digidata 1550 B digitizer and PClamp10 software (Molecular Devices, San Jose, CA, USA). Concentration-response curves were generated by perfusing unitary odorants over oocytes at increasing concentrations from [10^-3M] to [10^-9M]. Data were analyzed using GraphPad Prism 8 (GraphPad Software Inc., La Jolla, CA, USA). At least two biological replicates were conducted at each concentration and for each compound. Data for at least seven oocytes responding to each compound was analyzed (S7 File).

[2] = molecular target: T2, AaegOR13 (Aedes aegypti, UniProt Q16Z13); experiment: Two-electrode voltage clamp of Xenopus laevis oocytes expressing AaegOR13/Orco (blends, unitary compounds, concentration-response); settings: unitary compounds; for Normalized response, unitary compounds, Average: average of oocytes 1-7; for Raw data (Responses in nA), unitary compounds of Indoles 1, Alcohols 1, Alcohols 3 / Normalized response, unitary compounds of Indoles 1, Alcohols 1, Alcohols 3: individual oocytes 1-7; for Normalized response, unitary compounds of Indoles 1, Alcohols 1, Alcohols 3: normalized per oocyte
T2 sequence (Q16Z13 1-389): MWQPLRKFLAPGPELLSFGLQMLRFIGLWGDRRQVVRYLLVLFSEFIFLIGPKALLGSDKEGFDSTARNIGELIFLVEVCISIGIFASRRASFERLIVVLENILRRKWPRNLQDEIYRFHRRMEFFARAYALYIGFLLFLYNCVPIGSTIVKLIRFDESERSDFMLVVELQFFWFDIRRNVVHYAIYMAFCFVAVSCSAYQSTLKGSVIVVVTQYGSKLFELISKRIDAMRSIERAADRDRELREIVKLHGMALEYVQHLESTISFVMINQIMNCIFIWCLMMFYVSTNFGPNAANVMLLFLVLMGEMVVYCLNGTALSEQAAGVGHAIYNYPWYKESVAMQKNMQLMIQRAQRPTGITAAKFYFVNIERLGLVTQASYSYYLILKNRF
T2 sequence (Q178U6 1-478 partner): T1 sequence (Q178U6 1-478 partner)
Excerpt: as §1, §2, §3

[3] = molecular target: T3, AaegOR8 (Aedes aegypti, UniProt Q16MN0); experiment: Two-electrode voltage clamp of Xenopus laevis oocytes expressing AaegOR8/Orco (blends, unitary compounds, concentration-response); settings: for Raw data (Responses in nA) Oocyte 1 / Raw data (Responses in nA) Oocyte 2 / Raw data (Responses in nA) Oocyte 3 / Raw data (Responses in nA) Oocyte 4 / Raw data (Responses in nA) Oocyte 5 / Raw data (Responses in nA) Oocyte 6 / Raw data (Responses in nA) Oocyte 7 / Raw data (Responses in nA) Oocyte 8: Alcohols 2 unitary compounds
T3 sequence (Q16MN0 32-422): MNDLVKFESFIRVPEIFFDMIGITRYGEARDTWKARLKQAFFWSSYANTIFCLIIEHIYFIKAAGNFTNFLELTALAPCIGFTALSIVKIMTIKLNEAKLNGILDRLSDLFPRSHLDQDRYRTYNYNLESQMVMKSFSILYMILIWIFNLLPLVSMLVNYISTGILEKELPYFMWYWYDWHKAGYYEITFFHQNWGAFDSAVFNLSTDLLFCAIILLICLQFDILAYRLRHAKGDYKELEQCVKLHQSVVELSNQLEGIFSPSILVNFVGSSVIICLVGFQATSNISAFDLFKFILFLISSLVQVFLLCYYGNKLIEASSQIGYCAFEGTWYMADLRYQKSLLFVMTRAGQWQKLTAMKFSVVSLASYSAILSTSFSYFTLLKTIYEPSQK
T3 sequence (Q178U6 1-478 partner): T1 sequence (Q178U6 1-478 partner)
Excerpt: as §1, §2, §3

[4] = unitary compounds of Alcohols 2

Compound	Raw data (Responses in nA), compounds of blend Alcohols 2 [1, 4]	Raw data (Responses in nA), unitary compounds of Indoles 1, Alcohols 1, Alcohols 3 [2]	Raw data (Responses in nA) Oocyte 1 [3] [nA]	Raw data (Responses in nA) Oocyte 2 [3] [nA]	Raw data (Responses in nA) Oocyte 3 [3] [nA]	Raw data (Responses in nA) Oocyte 4 [3] [nA]	Raw data (Responses in nA) Oocyte 5 [3] [nA]	Raw data (Responses in nA) Oocyte 6 [3] [nA]	Raw data (Responses in nA) Oocyte 7 [3] [nA]	Raw data (Responses in nA) Oocyte 8 [3] [nA]	further results
C=CC(C)(O)CCC=C(C)C (racemic) [(+/-)-linalool]	0.0 nA (2×) and 5.0 nA and 10.0 nA (4×) and 20.0 nA and 40.0 nA and 15.0 nA	–	–	–	–	–	–	–	–	–	Normalized response, compounds of blend Alcohols 2, Average ([1]; unitary compounds of Alcohols 2, average of 10 oocytes, 1-hexanol = 100): 2.4; Normalized response, compounds of blend Alcohols 2 ([1]; unitary compounds of Alcohols 2, individual oocytes 1-10, normalized to the largest response of each oocyte (1-hexanol = 100)): 0.0 (2×) and 1.4 and 1.3 and 1.5 and 1.9 and 1.7 and 5.4 and 5.5 and 5.6
C=CC(C)(O)CCC=C(C)C (single isomer, unassigned; (+)) [(+) Linalool]	–	0.0 nA	–	–	–	–	–	–	–	–	Normalized response, unitary compounds, Average [2]: 0.0; Normalized response, unitary compounds of Indoles 1, Alcohols 1, Alcohols 3 [2]: 0.0
C=CC(C)(O)CCC=C(C)C (single isomer, unassigned; (-)) [(-) Linalool]	–	0.0 nA (6×) and 5.0 nA	–	–	–	–	–	–	–	–	Normalized response, unitary compounds, Average [2]: 0.26; Normalized response, unitary compounds of Indoles 1, Alcohols 1, Alcohols 3 [2]: 0.0 (6×) and 1.8
CCCCCCO [1-hexanol]	50.0 nA and 90.0 nA and 725.0 nA and 780.0 nA and 70.0 nA and 670.0 nA and 1070.0 nA and 580.0 nA and 740.0 nA and 275.0 nA	–	10.0	10.0	40.0	15.0	30.0	170.0	120.0	10.0	Raw Data, concentration-response ([1]; 1e-7 M, individual oocytes 1-10): 60.0 (2×) and 50.0 (2×) and 70.0 and 55.0 and 40.0 and 75.0 and 15.0 and 35.0; Raw Data, concentration-response ([1]; 5e-7 M, individual oocytes 1-10): 160.0 (2×) and 155.0 and 230.0 and 165.0 and 140.0 and 60.0; Raw Data, concentration-response ([1]; 1e-6 M, individual oocytes 1-10): 180.0 and 350.0 and 220.0 (2×) and 365.0 and 90.0 and 160.0; Raw Data, concentration-response ([1]; 5e-6 M, individual oocytes 1-10): 360.0 and 450.0 and 465.0 and 645.0 and 445.0 and 395.0 and 590.0 and 415.0 and 190.0 and 310.0; Raw Data, concentration-response ([1]; 1e-5 M, individual oocytes 1-10): 410.0 and 480.0 and 510.0 and 730.0 and 495.0 and 435.0 and 655.0 and 450.0 and 360.0; Raw Data, concentration-response ([1]; 5e-5 M, individual oocytes 1-10): 440.0 and 510.0 and 525.0 and 770.0 and 515.0 and 455.0 and 665.0 and 475.0 and 370.0; Raw Data, concentration-response ([1]; 0.0001 M, individual oocytes 1-10): 330.0 and 470.0 and 400.0 and 665.0 and 440.0 and 350.0 and 460.0 and 370.0 and 200.0 and 280.0; EC50 ([1]; AaegOR15/Orco expressing oocytes, TEVC, concentration-response of normalized current): ~1.07 µM and 1.07 µM; Raw data (Responses in nA), phenethyl propionate versus 1-hexanol [1]: 30.0 nA and 100.0 nA and 180.0 nA and 120.0 nA and 110.0 nA and 90.0 nA and 95.0 nA
C=CC(O)CCCCC (stereo not shown) [1-octen-3-ol]	10.0 nA and 20.0 nA (2×) and 200.0 nA and 230.0 nA and 210.0 nA and 370.0 nA and 110.0 nA and 240.0 nA and 80.0 nA	–	190.0	160.0	280.0	780.0	980.0	2200.0	2720.0	240.0	EC50 ([3]; AaegOR8/Orco expressing oocytes, TEVC, concentration-response of normalized current): 2.14 µM
CC(C)(C)c1ccc(O)cc1 [4-tert-butylphenol]	–	10.0 nA and 305.0 nA and 70.0 nA and 85.0 nA and 150.0 nA and 90.0 nA and 55.0 nA	–	–	–	–	–	–	–	–	–
C[C@@H]1CC[C@H]2C(C)(C)[C@H]3C[C@@]12CC[C@@]3(C)O [Cedrol]	0.0 nA (3×) and 5.0 nA (2×) and 10.0 nA (3×) and 25.0 nA and 20.0 nA	–	0.0	0.0	0.0	0.0	0.0	0.0	0.0	0.0	–
CC1CCCC2(C)CCCCC12O (stereo not shown) [Geosmin]	–	–	0.0	0.0	0.0	0.0	0.0	0.0	0.0	0.0	–
CCCCCC=O [hexanal]	0.0 nA (2×) and 10.0 nA and 80.0 nA and 85.0 nA and 110.0 nA (2×) and 160.0 nA and 115.0 nA and 40.0 nA	–	–	–	–	–	–	–	–	–	–
O=Cc1c[nH]c2ccccc12 [indole-3-carboxyaldehyde]	–	0.0 nA (2×) and 5.0 nA (5×)	–	–	–	–	–	–	–	–	–
CCC(=O)OCCc1ccccc1 [phenethyl propionate]	–	–	–	–	–	–	–	–	–	–	response of OR15 to unitary compounds ([1]; AaegOR15/Orco expressing oocytes, TEVC, individual compounds): additional responses; Secondary Ligand ([1]; AaegOR15, secondary ligand identified during the functional characterizations): phenethyl propionate; Normalized response, phenethyl propionate, Average ([1]; average of 7 oocytes, relative to 1-hexanol): 56.0; Raw data (Responses in nA), phenethyl propionate versus 1-hexanol [1]: 10.0 nA and 100.0 nA and 90.0 nA and 70.0 nA (2×) and 40.0 nA (2×)
